The record followed here is patent US8575145B2, “Triazolopyridine compounds as PIM kinase inhibitors” (Array BioPharma Inc., priority 2008, dated 2013).

The subject of assay [1] is K562 (Ph+chronic myelogenous leukemia). Kind of assay: Cellular Proliferation Assay, cell line B. In kind it is cell-based. Conditions: Homo sapiens; K562, 72 hours, CelltiterBlue; read-out: Cell Line B antiproliferative IC50. As for the experimental part:
(§1) The assay for determination of the antiproliferative activity of multiple Pim inhibitors in the JAK2-driven cell lines was conducted as follows. Cells were plated out to 96-well plates at an initial density of 10,000 cells/well in 95 pt. Compounds were prepared at […] in DMSO by conducting 3-fold serial dilutions to give a 10-point dosing curve having a high dose of 1000 μM. Aliquots (5 μt) of these dilutions were then transferred to the appropriate wells of the 96-well plates containing cells to yield a final DMSO concentration of 0.5%. The cells were then incubated with compound for 72 hours at 37° C., 5% CO2. CelltiterBlue reagent (Promega, Catalog #: G8080) was then added (20 μL/well) and incubated at 37° C., 5% CO2 for 1-8 hours depending on the cell line being analyzed. The plate was then quantified employing a fluorescence plate reader (Model: Gemini [Molecular Devices]; Settings: 560 nm (Ex)/590 nm (Em) 570 nm (cut-off) [CellTiter Blue Assay].
(§2) The values for each well were then converted to a percent of untreated control (POC). These POC values were then plotted as a function of compound concentration. A 4-parameter curve-fit analysis was performed for each compound dilution and an IC50 value was calculated from this curve.
(§3) Cell lines • A: PC3 (Androgen independent prostate cancer) • B: K562 (Ph+chronic myelogenous leukemia) • C: MV4-11 (Acute myelogenous leukemia) • D: BxPC3 (Pancreatic Cancer) • E: HepG2 (Hepatocellular Carcinoma) • F: BaF3 (Mouse pro-B-cell line) • G: BaF3 TEL-JAK2 (Mouse pro-B-cell transformed with TEL-JAK2 fusion) • H: BaF2 BCR-Ab1 (Mouse pro-B-cell transformed with BCR-Ab1 fusion)
Background: Alamar Blue is a resazurin reagent that responds to reducing activity.

Assay [2] has as its system BxPC3 (Pancreatic Cancer). As to the kind of experiment: Cellular Proliferation Assay, cell line D. The note with it: Homo sapiens, BXPC-3; BxPC3, 72 hours, CelltiterBlue; read-out: Cell Line D antiproliferative IC50. In kind it is cell-based. How it is done: as §1, §2, §3
For assay [3], the system named is PC3 (Androgen independent prostate cancer). Kind of assay: Cellular Proliferation Assay, cell line A. It counts as cell-based. The note with it: PC3, 72 hours, CelltiterBlue; read-out: Cell Line A antiproliferative IC50. As for the experimental part:
as §1, §2, §3

Assay [4] relates to BaF3 (Mouse pro-B-cell line). As to the kind of experiment: Cellular Proliferation Assay, cell line F. In kind it is cell-based. Conditions: BaF3, 72 hours, CelltiterBlue, read-out: Cell Line F antiproliferative IC50. How it is done:
as §1, §2, §3

The next assay concerns the target recombinant rat PIM-3 (Rattus norvegicus (Rat), UniProt O70444). Kind of assay: PIM-3 Enzyme Assay. Conditions: read-out: PIM-3 IC50; 30 μM ATP, 0.5 nM PIM-3.
The test system of assay [5] is BaF3 TEL-JAK2 (Mouse pro-B-cell transformed with TEL-JAK2 fusion). Kind of assay: Cellular Proliferation Assay, cell line G. It counts as cell-based. Conditions: BaF3 TEL-JAK2, 72 hours, CelltiterBlue, read-out: Cell Line G antiproliferative IC50. As for the experimental part:
as §1, §2, §3

Assay [6] concerns the target GST-tagged recombinant full-length human PIM-2 (Homo sapiens (Human), UniProt Q9P1W9). Kind of assay: PIM-2 Enzyme Assay. The note with it: read-out: PIM-2 IC50; 4 μM ATP, […] PIM-2.
The test system of assay [7] is HepG2 (Hepatocellular Carcinoma). As to the kind of experiment: Cellular Proliferation Assay, cell line E. In kind it is cell-based. Conditions: Homo sapiens; HepG2, 72 hours, CelltiterBlue; read-out: Cell Line E antiproliferative IC50. As for the experimental part:
as §1, §2, §3

In assay [8] the test system is BaF2 BCR-Ab1 (Mouse pro-B-cell transformed with BCR-Ab1 fusion). As to the kind of experiment: Cellular Proliferation Assay, cell line H. In kind it is cell-based. The note with it: BaF2 BCR-Ab1, 72 hours, CelltiterBlue, read-out: Cell Line H antiproliferative IC50. As for the experimental part:
as §1, §2, §3

Molecules are shown by their SMILES.

Sequence of GST-tagged recombinant full-length human PIM-2 (Q9P1W9 whole entry): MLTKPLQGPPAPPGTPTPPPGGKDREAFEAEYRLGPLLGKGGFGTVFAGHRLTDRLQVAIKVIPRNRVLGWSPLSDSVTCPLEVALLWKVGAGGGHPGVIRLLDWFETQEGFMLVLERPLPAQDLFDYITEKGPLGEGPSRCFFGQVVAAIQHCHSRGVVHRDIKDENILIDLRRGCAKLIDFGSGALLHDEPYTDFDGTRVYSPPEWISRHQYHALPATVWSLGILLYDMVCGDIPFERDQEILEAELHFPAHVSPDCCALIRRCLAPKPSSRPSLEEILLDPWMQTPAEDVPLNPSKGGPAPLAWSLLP
Protocol for recombinant rat PIM-3: The amount of radiolabeled product is then measured by liquid scintillation counting. The final buffer conditions were as follows: 20 mM K^+MOPS, pH 7.4, 10 mM MgCl2, 0.005% Tween-20, 1 mM DTT. […] Incubations were carried out for 60 min at 22° C. and quenched with 75 μL of 200 mM H3PO4, filtered through a Whatman P81 plate and washed (1×200 μL and 5×100 μL ) with 200 mM H3PO4. Liquid scintillation cocktail (50 μL ) was then added per well, and the plate was counted for 30 s/well using a TopCount NXT.
One-μL aliquots of these were then transferred to the assay mixtures above to give a final concentration of DMSO of 2%. […] For each plate, percent of control (POC) values were calculated for each well. IC50's were estimated from the POC's using a standard 4-parameter logistic model. The IC50 is defined as the concentration of inhibitor at which the POC equals 50 for the fitted curve.

As to `N[C@H]1CC[C@H](Oc2cccc3ccc(-c4nnc5ccccn45)nc23)CC1` [Example 17, (trans)-4-(2-([1,2,4]Triazolo[4,3-a]pyridin-3-yl)quinolin-8-yloxy)cyclohexanamine], the IC50 (commonly the concentration needed to halve the response being measured) is less than 10000 nM in [1]; less than 10000 nM in assay [2]; less than 2000 nM in [3]; less than 2000 nM in [4]; 3 nM at recombinant rat PIM-3; less than 2000 nM in [5]. The IC50 in assay [6] is 134 nM; in assay [7], less than 10000 nM; in assay [8] it was less than 2000 nM.
